According to BindingDB's records for doi:10.3109/14756366.2011.599065 (Wuhan Textile University, 2012):

Legend:
Urease subunit alpha [1] = target: Urease subunit alpha (Helicobacter pylori (strain ATCC 700392 / 26695), UniProt P69997); experiment: Urease Inhibition Assay; conditions: pH 7.4; 4 °C
Experimental: (§1) Briefly, 50 mL broth cultures (2.0 × 10^8 CFU/mL) were centrifuged (5000g, 4°C)to collect the bacteria, and after washing twice with phosphate-buffered saline (pH 7.4), the H. pylori precipitation was stored at −80°C. H. pylori was returnedto room temperature, and after the addition of 3 mL of distilled water and protease inhibitors, sonication was performed for 60 s. Following centrifugation(15,000g, 4°C), the supernatant was desalted through SephadexG-25 column (PD-10 columns, Amersham-Pharmacia Biotech, Uppsala, Sweden). The resultant crude urease solution was added to an equal volume of glycerol and stored at 4°C until use in the experiment. The mixture, containing 25 μL (4U) of H. pylori urease (100 mM HEPES, pH 6.8) and 25 μL of the test compounds of various concentrations, was preincubated for 3 h at room temperature in a 96-well assay plate. After preincubation, 0.2 mL of 100 mM HEPES (pH 6.8) buffer containing 500 mM urea and 0.002% phenol red were added and incubated at 37°C.

Urease subunit alpha [2] = target: Urease subunit alpha (Helicobacter pylori (strain J99 / ATCC 700824) (Campylobacter pylori J99), UniProt I0ZGT0+I0ZGT1); experiment: Urease Inhibition Assay; conditions: pH 7.4; 4 °C
Experimental: as §1

Sequence of Urease subunit alpha (Helicobacter pylori (strain J99 / ATCC 700824) (Campylobacter pylori J99), UniProt I0ZGT0+I0ZGT1) (I0ZGT1 whole entry): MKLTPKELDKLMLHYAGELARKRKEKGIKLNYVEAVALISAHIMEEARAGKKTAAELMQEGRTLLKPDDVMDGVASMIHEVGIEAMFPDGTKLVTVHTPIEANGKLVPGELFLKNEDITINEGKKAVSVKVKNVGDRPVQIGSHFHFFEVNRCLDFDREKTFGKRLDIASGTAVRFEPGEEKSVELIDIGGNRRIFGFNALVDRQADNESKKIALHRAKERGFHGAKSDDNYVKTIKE
Sequence of Urease subunit alpha (Helicobacter pylori (strain J99 / ATCC 700824) (Campylobacter pylori J99), UniProt I0ZGT0+I0ZGT1) (I0ZGT0 whole entry): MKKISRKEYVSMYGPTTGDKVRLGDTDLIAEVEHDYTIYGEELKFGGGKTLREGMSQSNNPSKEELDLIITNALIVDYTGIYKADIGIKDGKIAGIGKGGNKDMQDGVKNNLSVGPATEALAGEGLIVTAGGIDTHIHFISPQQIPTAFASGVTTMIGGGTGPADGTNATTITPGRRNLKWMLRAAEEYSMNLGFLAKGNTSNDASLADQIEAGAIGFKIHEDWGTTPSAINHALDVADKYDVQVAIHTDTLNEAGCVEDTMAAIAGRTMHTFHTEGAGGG
Sequence of Urease subunit alpha (Helicobacter pylori (strain ATCC 700392 / 26695), UniProt P69997) (P14916 whole entry): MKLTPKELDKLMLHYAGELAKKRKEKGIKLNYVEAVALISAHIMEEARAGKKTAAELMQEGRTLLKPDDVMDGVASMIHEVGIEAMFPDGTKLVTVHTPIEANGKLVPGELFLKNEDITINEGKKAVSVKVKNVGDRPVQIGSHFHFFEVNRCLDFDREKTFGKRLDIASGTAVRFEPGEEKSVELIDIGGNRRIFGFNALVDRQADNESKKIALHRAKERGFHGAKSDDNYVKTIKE
Sequence of Urease subunit alpha (Helicobacter pylori (strain ATCC 700392 / 26695), UniProt P69997) (P69997 whole entry): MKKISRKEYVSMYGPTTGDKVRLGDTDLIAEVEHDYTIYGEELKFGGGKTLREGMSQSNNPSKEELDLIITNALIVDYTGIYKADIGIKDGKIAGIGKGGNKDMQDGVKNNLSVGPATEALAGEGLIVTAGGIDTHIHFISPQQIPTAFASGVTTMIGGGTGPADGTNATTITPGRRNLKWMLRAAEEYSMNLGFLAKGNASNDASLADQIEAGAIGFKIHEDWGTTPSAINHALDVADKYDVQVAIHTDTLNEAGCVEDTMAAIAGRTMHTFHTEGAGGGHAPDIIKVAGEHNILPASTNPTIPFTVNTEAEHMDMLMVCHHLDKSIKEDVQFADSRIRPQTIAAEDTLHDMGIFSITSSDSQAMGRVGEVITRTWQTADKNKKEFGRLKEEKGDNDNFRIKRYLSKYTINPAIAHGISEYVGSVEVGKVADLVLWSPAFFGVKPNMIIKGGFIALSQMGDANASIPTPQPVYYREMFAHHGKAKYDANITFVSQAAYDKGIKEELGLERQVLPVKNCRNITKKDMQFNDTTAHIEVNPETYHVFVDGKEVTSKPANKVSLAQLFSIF

Row | Structure (SMILES) | IC50 (Urease subunit alpha [1]) [µM] | IC50 (Urease subunit alpha [2]) [µM]
1 | Cc1ccc(C(=O)O)cc1 [SAMPL4, O2] | > 100 | –
2 | Cc1cnc(C(=O)O)cn1 [5-Methylpyrazine-2-carboxylic acid] | – | > 100
3 | CC(=O)NO [acetohydroxamic acid] | – | 42.5
4 | NCc1ccccc1 | > 100 | –
